Structures are written as SMILES. Several values for one entry are separate records, joined by “and”; a condition that tells them apart may be missing. Identical values can stand only once.

Some targets named below: D(3) dopamine receptor (Rattus norvegicus, UniProt P19020); D(1B) dopamine receptor (Rattus norvegicus, UniProt P25115); D(1A) dopamine receptor (Rattus norvegicus, UniProt P18901).
In the next assay the target is T1, D(4) dopamine receptor (Rattus norvegicus, UniProt P30729).
T1 sequence (P30729 whole entry): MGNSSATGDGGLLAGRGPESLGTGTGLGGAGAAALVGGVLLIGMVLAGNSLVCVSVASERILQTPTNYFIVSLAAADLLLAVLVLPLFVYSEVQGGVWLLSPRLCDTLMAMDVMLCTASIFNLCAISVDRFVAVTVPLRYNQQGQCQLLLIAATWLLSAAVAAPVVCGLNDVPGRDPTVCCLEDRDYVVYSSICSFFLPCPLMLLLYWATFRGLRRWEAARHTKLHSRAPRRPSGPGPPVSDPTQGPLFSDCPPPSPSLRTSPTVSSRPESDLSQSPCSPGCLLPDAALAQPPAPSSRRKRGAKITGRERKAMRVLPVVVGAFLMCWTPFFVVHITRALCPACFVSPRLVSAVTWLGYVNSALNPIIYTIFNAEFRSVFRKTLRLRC

The target in assay [1] is 5-hydroxytryptamine receptor 6 (Rattus norvegicus, UniProt P31388).
Chain of 5-hydroxytryptamine receptor 6 (P31388 whole entry): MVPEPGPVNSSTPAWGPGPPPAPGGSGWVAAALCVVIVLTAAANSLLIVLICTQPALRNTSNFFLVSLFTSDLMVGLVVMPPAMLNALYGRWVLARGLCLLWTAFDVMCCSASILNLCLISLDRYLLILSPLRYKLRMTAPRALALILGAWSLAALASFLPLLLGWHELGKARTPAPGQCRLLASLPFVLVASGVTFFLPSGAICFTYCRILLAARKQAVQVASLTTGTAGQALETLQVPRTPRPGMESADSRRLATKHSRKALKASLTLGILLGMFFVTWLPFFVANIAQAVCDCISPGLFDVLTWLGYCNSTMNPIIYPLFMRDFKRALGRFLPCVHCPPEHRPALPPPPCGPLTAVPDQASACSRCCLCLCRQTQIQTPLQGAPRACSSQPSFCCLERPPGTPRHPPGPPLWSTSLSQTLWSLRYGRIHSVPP
Assay [2] has as its target 5-hydroxytryptamine receptor 7 (Rattus norvegicus, UniProt P32305).

Chain of D(3) dopamine receptor (P19020 whole entry): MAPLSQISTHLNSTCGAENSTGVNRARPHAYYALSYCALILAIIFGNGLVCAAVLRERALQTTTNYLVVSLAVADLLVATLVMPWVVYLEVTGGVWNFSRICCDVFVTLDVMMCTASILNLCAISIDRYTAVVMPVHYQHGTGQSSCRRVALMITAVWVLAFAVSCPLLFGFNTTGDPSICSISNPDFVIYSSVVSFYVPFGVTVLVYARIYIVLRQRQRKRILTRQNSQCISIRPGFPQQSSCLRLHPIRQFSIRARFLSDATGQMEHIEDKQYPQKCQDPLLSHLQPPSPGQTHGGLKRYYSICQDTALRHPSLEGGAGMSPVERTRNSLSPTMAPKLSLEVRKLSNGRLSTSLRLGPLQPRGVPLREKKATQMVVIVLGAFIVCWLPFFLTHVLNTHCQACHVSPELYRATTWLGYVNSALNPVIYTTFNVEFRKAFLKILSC
Chain of D(1A) dopamine receptor (P18901 whole entry): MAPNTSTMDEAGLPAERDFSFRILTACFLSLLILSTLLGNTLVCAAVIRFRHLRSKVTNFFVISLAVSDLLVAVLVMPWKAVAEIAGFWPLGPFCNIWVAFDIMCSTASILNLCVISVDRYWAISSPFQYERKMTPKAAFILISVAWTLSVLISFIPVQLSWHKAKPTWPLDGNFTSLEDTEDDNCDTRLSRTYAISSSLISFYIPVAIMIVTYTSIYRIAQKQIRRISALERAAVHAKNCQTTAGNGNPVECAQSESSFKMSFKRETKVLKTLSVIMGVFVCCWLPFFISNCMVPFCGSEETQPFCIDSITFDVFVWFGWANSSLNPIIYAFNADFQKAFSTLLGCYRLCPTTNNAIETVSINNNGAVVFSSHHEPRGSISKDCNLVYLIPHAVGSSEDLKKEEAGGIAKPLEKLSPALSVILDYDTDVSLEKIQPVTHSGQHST
Chain of D(1B) dopamine receptor (P25115 whole entry): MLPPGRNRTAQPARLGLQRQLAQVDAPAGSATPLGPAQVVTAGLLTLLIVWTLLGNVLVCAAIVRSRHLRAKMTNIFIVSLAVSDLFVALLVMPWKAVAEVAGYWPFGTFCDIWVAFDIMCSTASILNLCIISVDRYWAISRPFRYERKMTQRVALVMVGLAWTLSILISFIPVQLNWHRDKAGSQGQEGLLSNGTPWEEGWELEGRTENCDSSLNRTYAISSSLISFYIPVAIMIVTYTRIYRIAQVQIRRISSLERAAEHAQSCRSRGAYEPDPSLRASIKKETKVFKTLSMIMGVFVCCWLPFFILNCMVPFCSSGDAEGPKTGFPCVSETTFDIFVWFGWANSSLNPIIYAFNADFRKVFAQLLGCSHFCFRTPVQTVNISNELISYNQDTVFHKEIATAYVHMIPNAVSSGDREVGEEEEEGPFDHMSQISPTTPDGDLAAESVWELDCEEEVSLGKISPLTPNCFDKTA
Chain of 5-hydroxytryptamine receptor 7 (P32305 whole entry): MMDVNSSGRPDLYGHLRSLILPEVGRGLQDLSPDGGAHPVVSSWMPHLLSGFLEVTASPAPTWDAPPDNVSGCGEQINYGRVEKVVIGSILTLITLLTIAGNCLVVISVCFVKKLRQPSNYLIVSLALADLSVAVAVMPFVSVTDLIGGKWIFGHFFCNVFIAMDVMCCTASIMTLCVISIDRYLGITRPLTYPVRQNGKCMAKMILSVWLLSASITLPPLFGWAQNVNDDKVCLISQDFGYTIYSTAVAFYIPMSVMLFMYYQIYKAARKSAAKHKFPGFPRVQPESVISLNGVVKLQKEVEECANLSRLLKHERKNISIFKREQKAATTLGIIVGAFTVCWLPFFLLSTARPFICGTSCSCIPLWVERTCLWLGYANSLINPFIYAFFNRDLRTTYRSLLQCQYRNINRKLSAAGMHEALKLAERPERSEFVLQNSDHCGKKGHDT

On to `CCc1cc(Cl)c(OC)c(C(=O)NC[C@@H]2CCCN2CC)c1O` [3-Chloro-5-ethyl-N-((S)-1-ethyl-pyrrolidin-2-ylmethyl)-6-hydroxy-2-methoxy-benzamide], for which the Ki was 0.36 nM and 0.14 nM at D(3) dopamine receptor; 64 nM on D(4) dopamine receptor.
As for `O=C1CCc2ccc(OCCCCN3CCN(c4cccc(Cl)c4Cl)CC3)cc2N1` [7-{4-[4-(2,3-dichlorophenyl)piperazin-1-yl]butoxy}-3,4-dihydroquinolin-2(1H)-one], in assay [1], the affinity corresponds to a Ki of 161 nM.
For `Cc1c(O)ccc(N2CCN(CCCCOc3ccc4c(c3)NC(=O)CC4)CC2)c1C` [7-{4-[4-(4-hydroxy-2,3-dimethylphenyl)piperazin-1-yl]butoxy}-1,2,3,4-tetrahydroquinolin-2-one], the inhibitory constant (Ki) in assay [2] is 220 nM; at D(1B) dopamine receptor, greater than 10000 nM; at D(1A) dopamine receptor, 460 nM; at D(3) dopamine receptor, 4.5 nM and 1.63 nM; on D(4) dopamine receptor, 120 nM.
As to `Cc1cccc(N2CCN(CCCOc3ccc4ccc(=O)[nH]c4c3)CC2)c1C` [NSC_163839], the inhibition constant Ki in assay [1] is 680 nM; in assay [2], 22 nM; on D(1B) dopamine receptor it was greater than 10000 nM; at D(1A) dopamine receptor, greater than 10000 nM; at D(3) dopamine receptor, 18 nM and 81.7 nM; on D(4) dopamine receptor it was 280 nM.
